From ChEMBL document CHEMBL1156005, “Non-nucleoside inhibitors of HCV polymerase NS5B. Part 3: synthesis and optimization studies of benzothiazine-substituted tetramic acids” (Bioorg Med Chem Lett, 2009)

Tests used:
[1] = Cytotoxicity against human 2209-23 cells assessed as […] by WST-1 assay; assay type: cell-based
Hepatitis C virus [2] = experiment: Selectivity ratio, EC50 for HCV 1b in presence of 40% human serum to EC50 for HCV 1b in presence of 5% fetal bovine serum; assay type: functional, Hepacivirus hominis, genotype 1b
Hepatitis C virus [3] = experiment: Antiviral activity against HCV 1b infected in human 2209-23 cells assessed as inhibition of virus RNA replication by renilla luciferase reporter gene assay in presence of 5% fetal bovine serum; assay type: functional, organism-based, Hepacivirus hominis; details: genotype 1b
Genome polyprotein = Genome polyprotein (Hepatitis C virus genotype 1b (isolate Con1) (HCV), UniProt Q9WMX2); experiment: Inhibition of […] 1b con1 NS5B polymerase assessed as [3H]UTP incorporation into acid insoluble RNA product
Sequence of Genome polyprotein (Q9WMX2 2420-3010 limits assumed): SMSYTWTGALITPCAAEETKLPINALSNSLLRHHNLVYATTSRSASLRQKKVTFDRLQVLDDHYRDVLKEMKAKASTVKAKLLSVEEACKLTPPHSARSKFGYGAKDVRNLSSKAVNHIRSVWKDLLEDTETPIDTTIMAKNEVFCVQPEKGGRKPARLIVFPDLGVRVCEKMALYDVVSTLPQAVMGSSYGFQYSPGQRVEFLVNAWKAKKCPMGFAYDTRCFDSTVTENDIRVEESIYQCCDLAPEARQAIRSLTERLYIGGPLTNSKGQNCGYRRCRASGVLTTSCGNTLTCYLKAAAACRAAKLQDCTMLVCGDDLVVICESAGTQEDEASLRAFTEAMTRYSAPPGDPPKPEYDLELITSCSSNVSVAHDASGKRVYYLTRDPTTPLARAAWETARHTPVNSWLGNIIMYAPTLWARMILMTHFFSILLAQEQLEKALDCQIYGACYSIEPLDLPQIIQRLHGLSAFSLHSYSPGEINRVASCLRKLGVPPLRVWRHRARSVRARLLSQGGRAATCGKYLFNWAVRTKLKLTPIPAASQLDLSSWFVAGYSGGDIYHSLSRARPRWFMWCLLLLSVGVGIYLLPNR

Hepatitis C virus [4] = experiment: Antiviral activity against HCV 1b infected in human 2209-23 cells assessed as inhibition of virus RNA replication by renilla luciferase reporter gene assay in presence of 40% human serum; assay type: functional, organism-based, Hepacivirus hominis; details: genotype 1b
[5] = Clearance in rat at 2 mg/kg, iv; assay type: ADME, organism-based; set-up: dose 2 mg/kg, route intravenous; details: in vivo
Cytochrome P450 3A4 = Cytochrome P450 3A4 (Homo sapiens, UniProt P08684); experiment: Inhibition of CYP3A4 by time dependent inactivation assay; assay type: ADME
Sequence of Cytochrome P450 3A4 (P08684 whole entry): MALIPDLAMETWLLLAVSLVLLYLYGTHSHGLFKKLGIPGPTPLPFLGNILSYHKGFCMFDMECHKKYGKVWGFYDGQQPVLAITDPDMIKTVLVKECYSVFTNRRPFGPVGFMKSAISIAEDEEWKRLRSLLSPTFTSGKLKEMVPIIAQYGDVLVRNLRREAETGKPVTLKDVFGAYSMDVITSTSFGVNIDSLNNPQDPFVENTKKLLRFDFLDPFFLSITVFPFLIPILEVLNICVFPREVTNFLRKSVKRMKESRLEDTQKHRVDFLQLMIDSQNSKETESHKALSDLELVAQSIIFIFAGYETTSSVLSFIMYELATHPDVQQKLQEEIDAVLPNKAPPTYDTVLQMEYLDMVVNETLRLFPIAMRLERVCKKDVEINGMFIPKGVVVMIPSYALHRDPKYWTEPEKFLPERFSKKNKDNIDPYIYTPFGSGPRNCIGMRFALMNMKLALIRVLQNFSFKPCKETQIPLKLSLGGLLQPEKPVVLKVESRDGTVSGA

[6] = Metabolic stability in rat liver microsomes; assay type: ADME, Microsome; details: read-out: Stability
[7] = Permeability by PAMPA; assay type: ADME; details: read-out: permeability
Hepatitis C virus [8] = experiment: Ratio of EC50 for HCV 1a over EC50 for HCV 1b
Caco-2 = experiment: Efflux ratio of permeability from […] side in human Caco-2 cells after 21 days; assay type: ADME, cell-based; details: caco-2, 504 h
Hepatitis C virus [9] = experiment: Antiviral activity against HCV 1b infected in human 2209-23 cells assessed as inhibition of virus RNA replication by renilla luciferase reporter gene assay; assay type: functional, organism-based, Hepacivirus hominis; details: genotype 1b
[10] = Oral bioavailability in rat; assay type: ADME, organism-based; details: in vivo
[11] = Tmax in po dosed rat; assay type: ADME, organism-based; details: in vivo
[12] = AUC in rat at 5 mg/kg; assay type: ADME, organism-based; set-up: dose 5 mg/kg; details: plasma

Compound	CC50 [1]	Ratio EC50 (Hepatitis C virus [2])	EC50 (Hepatitis C virus [3])	IC50 (Genome polyprotein)	EC50 (Hepatitis C virus [4])	clearance [5]	inhibition (INH) (Cytochrome P450 3A4)	microsomal CLint [6]	Papp [7]	Ratio EC50 (Hepatitis C virus [8])	Ratio (Caco-2)	EC50 (Hepatitis C virus [9])	bioavailability [10]	Tmax [11]	AUC [12]
CC(C)CCN1C(=O)C(C2=CS(=O)(=O)c3cc(NS(C)(=O)=O)ccc3N2)=C(O)[C@@H]1C(C)(C)C	> 50000 nM	22	30 nM	5 nM	660 nM	–	–	–	–	–	–	–	–	–	–
CC(C)(C)[C@H]1C(O)=C(C2=CS(=O)(=O)c3cc(NS(C)(=O)=O)ccc3N2)C(=O)N1Cc1ccc(F)c(Cl)c1	> 50000 nM	18.1	9 nM	5 nM	163 nM	86 mL/min/kg	41%	84 µL/min/mg	0.98 ×10⁻⁶ cm/s	–	–	–	–	–	–
CC(C)(C)[C@H]1C(O)=C(C2=CS(=O)(=O)c3cc(NS(C)(=O)=O)ccc3N2)C(=O)N1Cc1ccccc1	> 50000 nM	4.3	32 nM	8 nM	139 nM	144 mL/min/kg	19%	–	1.8 ×10⁻⁶ cm/s	4	11	–	–	–	–
CC(C)(C)[C@H]1C(O)=C(C2=CS(=O)(=O)c3cc(C#N)ccc3N2)C(=O)N1Cc1ccc(F)cc1	> 50000 nM	–	–	1200 nM	–	–	10.9%	–	–	–	–	6850 nM	–	–	–
CC(C)(C)[C@H]1C(O)=C(C2=CS(=O)(=O)c3cc(NS(C)(=O)=O)ccc3N2)C(=O)N1Cc1ccc(F)cc1F	> 50000 nM	6.5	35 nM	13 nM	226 nM	–	–	–	–	4	–	–	–	–	–
Cc1cc(CN2C(=O)C(C3=CS(=O)(=O)c4cc(NS(C)(=O)=O)ccc4N3)=C(O)[C@@H]2C(C)(C)C)ccc1F	> 50000 nM	10.2	12 nM	3 nM	122 nM	101 mL/min/kg	39%	327 µL/min/mg	1.62 ×10⁻⁶ cm/s	4	–	–	–	–	–
CC(C)(C)[C@H]1C(O)=C(C2=C(C#N)S(=O)(=O)c3cc(NS(C)(=O)=O)ccc3N2)C(=O)N1Cc1ccc(F)cc1	> 50000 nM	–	–	6 nM	–	–	24.7%	–	–	4	–	16 nM	–	–	–
CC(C)(C)[C@H]1C(O)=C(C2=CS(=O)(=O)c3cc(NS(C)(=O)=O)ccc3N2)C(=O)N1Cc1ccc(F)cn1	> 50000 nM	8.5	201 nM	42 nM	1720 nM	–	–	–	–	–	–	–	–	–	–
CC(C)(C)CCN1C(=O)C(C2=CS(=O)(=O)c3cc(NS(C)(=O)=O)ccc3N2)=C(O)[C@@H]1C(C)(C)C	> 50000 nM	4.1	16 nM	8 nM	65 nM	> 100 mL/min/kg	23%	79 µL/min/mg	1.8 ×10⁻⁶ cm/s	–	14	–	–	–	–
CC(C)(C)[C@H]1C(O)=C(C2=CS(=O)(=O)c3cc(NS(C)(=O)=O)cc(F)c3N2)C(=O)N1Cc1ccc(F)cc1	> 50000 nM	–	–	9 nM	–	36 mL/min/kg	8.5%	–	–	4	–	36 nM	–	–	–
CC(=O)C1=C(C2=C(O)[C@H](C(C)(C)C)N(Cc3ccc(F)cc3)C2=O)Nc2ccc(NS(C)(=O)=O)cc2S1(=O)=O	> 50000 nM	–	–	4 nM	–	–	15.1%	–	–	–	–	20 nM	–	–	–
CC(C)(C)[C@H]1C(O)=C(C2=CS(=O)(=O)c3cc(F)ccc3N2)C(=O)N1Cc1ccc(F)cc1	> 50000 nM	–	–	338 nM	–	–	7.6%	–	–	–	–	1870 nM	–	–	–
CC(C)(C)[C@@H]1NC(=O)C(C2=CS(=O)(=O)c3cc(NS(C)(=O)=O)ccc3N2)=C1O	–	–	–	–	–	–	5.7%	–	–	–	–	–	–	–	–
CC(C)(C)[C@H]1C(O)=C(C2=C(Cl)S(=O)(=O)c3cc(NS(C)(=O)=O)ccc3N2)C(=O)N1Cc1ccc(F)cc1	> 50000 nM	–	–	2 nM	–	–	31%	–	–	–	–	4 nM	–	–	–
COc1cc(CN2C(=O)C(C3=CS(=O)(=O)c4cc(NS(C)(=O)=O)ccc4N3)=C(O)[C@@H]2C(C)(C)C)ccc1F	> 50000 nM	15.1	28 nM	4 nM	422 nM	–	–	–	–	–	–	–	–	–	–
CC(C)(C)[C@H]1C(O)=C(C2=CS(=O)(=O)c3cc(NS(C)(=O)=O)ccc3N2)C(=O)N1Cc1ccc(F)cc1	> 50000 nM	2.7	12 nM	7 nM	33 nM	101 mL/min/kg	41%	32 µL/min/mg	1.4 ×10⁻⁶ cm/s	4	25	5 nM	22%	1.3 h	189 ng·h/mL
CC(C)(CO)[C@H]1C(O)=C(C2=CS(=O)(=O)c3cc(NS(C)(=O)=O)ccc3N2)C(=O)N1Cc1ccc(F)cc1	–	–	–	–	–	–	20.5%	–	–	–	–	–	–	–	–
CCC(C)(C)[C@H]1C(O)=C(C2=CS(=O)(=O)c3cc(NS(C)(=O)=O)ccc3N2)C(=O)N1Cc1ccc(F)c(C)c1	–	–	–	–	–	–	–	–	–	–	–	24 nM	–	–	–
CC(C)(C)[C@H]1C(O)=C(C2=CS(=O)(=O)c3cc([N+](=O)[O-])ccc3N2)C(=O)N1Cc1ccc(F)cc1	> 50000 nM	–	–	1800 nM	–	–	0.4%	–	–	–	–	16500 nM	–	–	–
CC(C)(C)[C@H]1C(O)=C(C2=C(C(N)=O)S(=O)(=O)c3cc(NS(C)(=O)=O)ccc3N2)C(=O)N1Cc1ccc(F)cc1	> 50000 nM	–	–	11 nM	–	5 mL/min/kg	17.8%	–	–	4	–	16 nM	–	–	–
CC1=C(C2=C(O)[C@H](C(C)(C)C)N(Cc3ccc(F)cc3)C2=O)Nc2ccc(NS(C)(=O)=O)cc2S1(=O)=O	> 50000 nM	–	–	10 nM	–	–	21.9%	–	–	–	–	78 nM	–	–	–
